Reference: patent US20150352164A1, “COMPOSITION COMPRISING THEANINE AND AN EXTRACT OF INULA RACEMOSA” (CONOPCO, INC., D/B/A UNILEVER, priority 2012, published 2015)

System: 3T3L1 (mouse preadipocytes), differentiated to mature adipocytes; adiponectin secretion
Assay: Adiponectin assay: adiponectin secretion from differentiated 3T3L1 adipocytes, ELISA of supernatants
Format: cell-based
Settings: for % of adiponectin (control cells taken as hundred): 48 hrs
Protocol: Adiponectin Assay Protocol • 3T3L1 (mouse preadipocytes) were plated on a 96 well plate at a density of 3*10^3 cells per well; • After 5 days of post confluency (a condition where the cells form a uniform layer) the cells were differentiated (a process where premature adipocytes are transformed to mature adipocytes) in differentiation medium for 10 days; • On the 11th day the matured adipocytes were treated with non cytotoxic concentrations (concentrations stated below) of the inula racemosa extract and theanine; • The cells were incubated for 48 hrs and supernatants were collected and stored. They were analysed to detect level of Adiponectin by ELISA; • The efficacy of the test ingredient was evaluated with respect to the untreated control (media control); • If any of the tested combinations of inula racemosa extract and theanine on increased adiponectin level was larger in a statistically significant way than the additive effect or individual components, then the particular combination is considered to be synergistic. To investigate the efficacy of inula racemosa and theanine in increasing adiponectin secretion from 3T3L1, the cells were treated with varying concentrations of inula racemosa (as obtained set out herein in the Materials section) and theanine in cell culture medium. The % of adiponectin from control cells were taken as hundred, upon which the treatment values were calculated. […] A range of combination varying amounts of inula racemosa extract and theanine were investigated on its joint ability for adiponectin secretion. The combinations used were (weight ratio's theanine:inula racemosa extract): 100:1 ([…]), 100:10,000 (H). This was achieved via dissolution of the components in aqueous stock solutions.

With `CCNC(=O)CCC(N)C(=O)O` (stereo not shown) [Theanine, 2-Amino-4-(ethylcarbamoyl)butyric acid] the “% of adiponectin (control cells taken as hundred)” value (“% of adiponectin” for short) (0.00001% wt of inula r. extract or theanine in cell culture medium) was 106.7 +/− 7.4%, the “% of adiponectin” value (0.00002% wt of inula r. extract or theanine in cell culture medium) was 107.0 +/− 7.0% and the “% of adiponectin” value (0.00005% wt of inula r. extract or theanine in cell culture medium) was 136.7 +/− 7.3%. For the same molecule, the “% of adiponectin” value (0.0001% wt of inula r. extract or theanine in cell culture medium) was 141.7 +/− 1.6%, the “% of adiponectin” value (0.0005% wt of inula r. extract or theanine in cell culture medium) was 145.8 +/− 8.2% and the “% of adiponectin” value (0.001% wt of inula r. extract or theanine in cell culture medium) was 156.0 +/− 8.5%. For the same molecule, the “adiponectin levels, in-vitro, separately” value (varying concentrations, 3T3L1 cells) was “increased adiponectin levels”.
